Molecular target: T1, vanilloid receptor 1 (VR1/TRPV1 receptor) (Homo sapiens, UniProt Q8NER1)
T1 construct: expressed in transfected cells; host or cells: CHO K1
Test: Functional testing on the vanilloid receptor 1 (VR1/TRPV1): FLIPR Ca2+ influx assay, displacement of capsaicin
Type: cell-based, human being
Parameters: key to mode of action at VR1/TRPV1 (AG, pAG, NE), Cap: AG=agonist; NE=no effect; pAG=partial agonist
Conditions: for inhibition at 5 µM: 5 μM compound; for Ki: capsaicin (Cap) as stimulus, Ki from IC50 by Cheng-Prusoff, read-out: (f) Ki (human being) [nM] Cap
In short: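 Fluo-4 FLIPR Ca2+ influx in CHO K1 cells transfected with human VR1, measuring displacement of 100 nM capsaicin; rat VR1 agonism/antagonism also assessed in rat dorsal root ganglion neurons cultured 2–3 days at 37° C with 25 ng/mL NGF, then loaded with 2 μM Fluo-4.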

[1] = capsaicin (Cap), human being, read-out: inhibition (as a percentage) at the concentration after @, Cap

T1 sequence (Q8NER1 whole entry): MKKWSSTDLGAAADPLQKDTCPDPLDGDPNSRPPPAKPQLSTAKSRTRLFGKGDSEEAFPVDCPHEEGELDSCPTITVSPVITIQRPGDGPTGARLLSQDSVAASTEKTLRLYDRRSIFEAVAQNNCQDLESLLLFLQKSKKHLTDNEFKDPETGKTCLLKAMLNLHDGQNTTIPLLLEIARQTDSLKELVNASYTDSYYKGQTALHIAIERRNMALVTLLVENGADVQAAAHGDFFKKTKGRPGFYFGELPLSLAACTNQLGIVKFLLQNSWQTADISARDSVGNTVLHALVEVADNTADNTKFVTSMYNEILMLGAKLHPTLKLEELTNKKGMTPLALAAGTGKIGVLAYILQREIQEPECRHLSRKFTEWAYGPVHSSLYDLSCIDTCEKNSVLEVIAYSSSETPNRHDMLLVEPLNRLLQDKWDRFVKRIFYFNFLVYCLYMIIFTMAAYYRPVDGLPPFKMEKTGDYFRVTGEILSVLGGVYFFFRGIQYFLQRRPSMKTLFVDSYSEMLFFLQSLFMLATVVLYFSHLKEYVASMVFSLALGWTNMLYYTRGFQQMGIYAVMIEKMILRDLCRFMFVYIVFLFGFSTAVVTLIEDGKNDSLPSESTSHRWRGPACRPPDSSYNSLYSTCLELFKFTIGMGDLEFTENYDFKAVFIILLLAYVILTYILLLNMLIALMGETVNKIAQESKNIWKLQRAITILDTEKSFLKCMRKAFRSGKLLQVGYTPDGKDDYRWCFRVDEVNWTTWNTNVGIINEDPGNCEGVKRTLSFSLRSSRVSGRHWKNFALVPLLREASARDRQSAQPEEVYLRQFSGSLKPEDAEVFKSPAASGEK

Ki [nM] | Compound | also measured
 | COCCOc1ccc(NC(=O)NCc2cc(C(C)(C)C)nn2-c2cccc(Cl)c2)cn1 [Example 131, 1-((3-tert-butyl-1-(3-chlorophenyl)-1H-pyrazol-5-yl)methyl)-3-(6-(2-methoxyethoxy)pyridin-3-yl)urea] | inhibition at 5 µM [1]: 83%; mode of action at VR1/TRPV1 (AG, pAG, NE), Cap (capsaicin (Cap), human being): AG
 | COCCOc1ccc(NC(=O)NCc2cc(C(F)(F)F)nn2-c2cccc(Cl)c2)cn1 [Example 132, 1-((1-(3-chlorophenyl)-3-(trifluoromethyl)-1H-pyrazol-5-yl)methyl)-3-(6-(2-methoxyethoxy)pyridin-3-yl)urea] | inhibition at 5 µM [1]: 45%
88 | O=C(NCc1cc(C(F)(F)F)nn1-c1cccc(Cl)c1)Nc1ccc(OCCO)nc1 [Example 133, 1-((1-(3-chlorophenyl)-3-(trifluoromethyl)-1H-pyrazol-5-yl)methyl)-3-(6-(2-hydroxyethoxy)pyridin-3-yl)urea] | 
 | O=C(NCc1cc(C(F)(F)F)nn1-c1cccc(Cl)c1)Nc1ccc(CNCCO)nc1 [Example 134, 1-((1-(3-chlorophenyl)-3-(trifluoromethyl)-1H-pyrazol-5-yl)methyl)-3-(6-((2-hydroxyethylamino)methyl)pyridin-3-yl)urea] | mode of action at VR1/TRPV1 (AG, pAG, NE), Cap (capsaicin (Cap), human being): NE
 | CN(CCO)Cc1ccc(NC(=O)NCc2cc(C(F)(F)F)nn2-c2cccc(Cl)c2)cn1 [Example 135, 1-((1-(3-chlorophenyl)-3-(trifluoromethyl)-1H-pyrazol-5-yl)methyl)-3-(6-(((2-hydroxyethyl)(methyl)amino)methyl)pyridin-3-yl)urea] | inhibition at 5 µM [1]: 22%
47 | Cc1ccc(NC(=O)NCc2cc(C(F)(F)F)nn2-c2cccc(Cl)c2)cn1 [Example 136, 1-((1-(3-chlorophenyl)-3-(trifluoromethyl)-1H-pyrazol-5-yl)methyl)-3-(6-methylpyridin-3-yl)urea] | 
55 | Cc1cncc(NC(=O)NCc2cc(C(F)(F)F)nn2-c2cccc(Cl)c2)c1 [Example 137, 1-((1-(3-chlorophenyl)-3-(trifluoromethyl)-1H-pyrazol-5-yl)methyl)-3-(5-methylpyridin-3-yl)urea] | 
90 | Cc1cc(C)c(NC(=O)NCc2cc(C(F)(F)F)nn2-c2cccc(Cl)c2)cn1 [Example 138, 1-((1-(3-chlorophenyl)-3-(trifluoromethyl)-1H-pyrazol-5-yl)methyl)-3-(4,6-dimethylpyridin-3-yl)urea] | 
109 | CC(C)(C)c1cc(CNC(=O)Nc2ccc(CO)cn2)n(-c2cccc(Cl)c2)n1 [Example 139, 1-((3-tert-butyl-1-(3-chlorophenyl)-1H-pyrazol-5-yl)methyl)-3-(5-(hydroxymethyl)pyridin-2-yl)urea] | 
 | Cc1nc(CO)ccc1NC(=O)NCc1cc(C(F)(F)F)nn1-c1cccc(Cl)c1 [Example 141, 1-((1-(3-chlorophenyl)-3-(trifluoromethyl)-1H-pyrazol-5-yl)methyl)-3-(6-(hydroxymethyl)-2-methylpyridin-3-yl)urea] | inhibition at 5 µM [1]: 51%
1.5 | CC(C(=O)NCc1cc(C(F)(F)F)nn1-c1cccc(Cl)c1)c1cnc(CO)c(F)c1 (stereo not drawn) [Example 142, N-((1-(3-chlorophenyl)-3-(trifluoromethyl)-1H-pyrazol-5-yl)methyl)-2-(5-fluoro-6-(hydroxymethyl)pyridin-3-yl)propanamide] | 
84 | Cc1nc(CCO)ccc1NC(=O)NCc1cc(C(F)(F)F)nn1-c1cccc(Cl)c1 [Example 143, 1-((1-(3-chlorophenyl)-3-(trifluoromethyl)-1H-pyrazol-5-yl)methyl)-3-(6-(2-hydroxyethyl)-2-methylpyridin-3-yl)urea] | 
24 | CC(C)(C)c1cc(CNC(=O)Nc2ccc(C(O)CO)nc2)n(-c2cccc(Cl)c2)n1 (stereo not drawn) [Example 144, 1-((3-tert-butyl-1-(3-chlorophenyl)-1H-pyrazol-5-yl)methyl)-3-(6-(1,2-dihydroxyethyl)pyridin-3-yl)urea] | 
121 | O=C(NCc1cc(C(F)(F)F)nn1-c1cccc(Cl)c1)Nc1ccc(C(O)CO)nc1 (stereo not drawn) [Example 145, 1-((1-(3-chlorophenyl)-3-(trifluoromethyl)-1H-pyrazol-5-yl)methyl)-3-(6-(1,2-dihydroxyethyl)pyridin-3-yl)urea] | 
0.6 | CC(C(=O)NCc1cc(C(F)(F)F)nn1-c1cccc(Cl)c1)c1ccc(NCCO)nc1 (stereo not drawn) [Example 146, N-((1-(3-chlorophenyl)-3-(trifluoromethyl)-1H-pyrazol-5-yl)methyl)-2-(6-(2-hydroxyethylamino)pyridin-3-yl)propanamide] | 
18 | COCCNc1ccc(C(C)C(=O)NCc2cc(C(F)(F)F)nn2-c2cccc(Cl)c2)cn1 (stereo not drawn) [Example 147, N-((1-(3-chlorophenyl)-3-(trifluoromethyl)-1H-pyrazol-5-yl)methyl)-2-(6-(2-methoxyethylamino)pyridin-3-yl)propanamide] | 
15 | CC(C(=O)NCc1cc(C(F)(F)F)nn1-c1cccc(Cl)c1)c1ccc(N(C)CCO)nc1 (stereo not drawn) [Example 148, N-((1-(3-chlorophenyl)-3-(trifluoromethyl)-1H-pyrazol-5-yl)methyl)-2-(6-((2-hydroxyethyl)(methyl)amino)pyridin-3-yl)propanamide] | 
28 | CC(C(=O)NCc1cc(C(F)(F)F)nn1-c1ccc(F)c(Cl)c1)c1ccc(CCO)nc1 (stereo not drawn) [Example 149, N-((1-(3-chloro-4-fluorophenyl)-3-(trifluoromethyl)-1H-pyrazol-5-yl)methyl)-2-(6-(2-hydroxyethyl)pyridin-3-yl)propanamide] | 
59 | CC(C(=O)NCc1cc(C2CC2)nn1-c1cccc(Cl)c1)c1ccc(CCO)nc1 (stereo not drawn) [Example 150, N-((1-(3-chlorophenyl)-3-cyclopropyl-1H-pyrazol-5-yl)methyl)-2-(6-(2-hydroxyethyl)pyridin-3-yl)propanamide] | 
49 | Cc1cccc(-n2nc(C(F)(F)F)cc2CNC(=O)C(C)c2ccc(CCO)nc2)c1 (stereo not drawn) [Example 151, 2-(6-(2-hydroxyethyl)pyridin-3-yl)-N-((1-m-tolyl-3-(trifluoromethyl)-1H-pyrazol-5-yl)methyl)propanamide] | 
85 | CC(C)(C)c1cc(CNC(=O)Nc2ccc(CCO)nc2)n(-c2cccc(F)c2)n1 [Example 152, 1-((3-tert-butyl-1-(3-fluorophenyl)-1H-pyrazol-5-yl)methyl)-3-(6-(2-hydroxyethyl)pyridin-3-yl)urea] | 
50 | COc1cccc(-n2nc(C(C)(C)C)cc2CNC(=O)Nc2ccc(CCO)nc2)c1 [Example 153, 1-((3-tert-butyl-1-(3-methoxyphenyl)-1H-pyrazol-5-yl)methyl)-3-(6-(2-hydroxyethyl)pyridin-3-yl)urea] | 
38 | CC(C)(C)c1cc(CNC(=O)Nc2ccc(NCCO)nc2)n(-c2cccc(F)c2)n1 [Example 154, 1-((3-tert-butyl-1-(3-fluorophenyl)-1H-pyrazol-5-yl)methyl)-3-(6-(2-hydroxyethylamino)pyridin-3-yl)urea] | 
35 | O=C(NCc1cc(C(F)(F)F)nn1-c1cc(F)cc(F)c1)Nc1ccc(NCCO)nc1 [Example 155, 1-((1-(3,5-difluorophenyl)-3-(trifluoromethyl)-1H-pyrazol-5-yl)methyl)-3-(6-(2-hydroxyethylamino)pyridin-3-yl)urea] | 
29 | Cc1cc(-n2nc(C(F)(F)F)cc2CNC(=O)Nc2ccc(NCCO)nc2)ccc1Cl [Example 156, 1-((1-(4-chloro-3-methylphenyl)-3-(trifluoromethyl)-1H-pyrazol-5-yl)methyl)-3-(6-(2-hydroxyethylamino)pyridin-3-yl)urea] | 
112 | COc1ccc(-n2nc(C(F)(F)F)cc2CNC(=O)Nc2ccc(NCCO)nc2)cc1C [Example 157, 1-(6-(2-hydroxyethylamino)pyridin-3-yl)-3-((1-(4-methoxy-3-methylphenyl)-3-(trifluoromethyl)-1H-pyrazol-5-yl)methyl)urea] | 
77 | Cc1cc(-n2nc(C(F)(F)F)cc2CNC(=O)Nc2ccc(NCCO)nc2)ccc1F [Example 158, 1-((1-(4-fluoro-3-methylphenyl)-3-(trifluoromethyl)-1H-pyrazol-5-yl)methyl)-3-(6-(2-hydroxyethylamino)pyridin-3-yl)urea] | 
 | CC(C)(C)c1cc(CNC(=O)Nc2ccc(CS(C)(=O)=O)nc2)n(-c2cccc(Cl)c2)n1 [Example 159, 1-((3-tert-butyl-1-(3-chlorophenyl)-1H-pyrazol-5-yl)methyl)-3-(6-(methylsulfonylmethyl)pyridin-3-yl)urea] | inhibition at 1 µM (1 μM compound, capsaicin (Cap), human being, read-out: inhibition (as a percentage) at the concentration after @, Cap): 29%
75 | CC(C)(C)c1cc(CNC(=O)Nc2ccc(CO)nc2)n(-c2cccc(F)c2)n1 [Example 160, 1-((3-tert-butyl-1-(3-fluorophenyl)-1H-pyrazol-5-yl)methyl)-3-(6-(hydroxymethyl)pyridin-3-yl)urea] | 

From patent US20130029962A1, “Substituted Heteroaromatic Pyrazole-Containing Carboxamide and Urea Compounds as Vanilloid Receptor Ligands” (Gruenenthal GmbH, priority 2011, published 2013)
